These results are taken from US9434670B2, “Family of aryl, heteroaryl, O-aryl and O-heteroaryl carbasugars” (TFCHEM, priority 2011, dated 2016).

Series [1] deals with β-glucosidase from Almonds. In words: Enzymatic stability against glycosidase, HPLC analysis after incubation with β-glucosidase. It counts as in vitro ADME. The text has this: The enzymatic stability assay has been performed with compound 26 according to the invention and compound A used as a reference compound to control the efficacy of the β-glucosidase. The sergliflozin-A stability has also been evaluated in order to compare the improvement of metabolic stability obtained through the replacement of the intracyclic oxygen atom of the glucose moiety by a CF2 moiety.
All the compounds have been treated with β-glucosidase. The stability of compound 26 and Sergliflozin-A has been assessed by HPLC analysis after incubation with β-glucosidase.
A Gilson HPLC system was used, equipped with a manual injection system (V=20 μL), a Diode Array Detector (DAD172) set at a wavelength of 230 nm and a 150 mm×4.6 mm, 5 μm HICHROM Kromasil 100-5C18 reverse phase column. A linear HPLC binary gradient was used as follows: solvent A was water and solvent B was acetonitrile. Following the injection of 20 μL of a sample, solvent B was held at 20% for 3 min, increased from 20% to 90% in 17 min, held at 90% for 4 min; finally, solvent B was decreased back to 20% over 5.5 min and was held at 20% for 3.5 min.
The procedure has been adapted from J. Agric. Food Chem. 2005, 53, 4918-4924.
100 μL of a solution of compound 26 at 4.5·10^−4 mol·L^−1 in acetonitrile was added to a solution containing 800 μL of phosphate buffer (73173 Fluka, pH 7) in the presence of β-glucosidase from Almonds (10 U, 100 μL of a 5.6 mg·mL^−1 solution in phosphate buffer, (G4511sigma 18.7 U per mg)) and was kept 4 h at 37° C.
100 μL of a solution of sergliflozin-A at 4.5·10^−4 moL·L^−1 in acetonitrile has been treated in the presence of β-glucosidase following the same process.
In parallel, 100 μL of a solution of p-nitrophenyl-β-glucoside (compound A) at 4.5·10^−4 mol·L^−1 in phosphate buffer (73173 Fluka, pH 7) was added to a solution containing 700 μL of phosphate buffer and 100 μL of acetonitrile, with the presence of β-glucosidase from Almonds (10 U, 100 μL of a 5.6 mg·mL^−1 solution in phosphate buffer, (G4511 sigma 18.7 U per mg)) and was kept 4 h at 37° C. During the process in the presence of β-glucosidase, a yellow coloration was observed that underlines the decomposition of compound. A.
HPLC of compound 21 (FIG. 7), compound 26 (FIG. 8) and Sergliflozin-A (FIG. 10) have been performed to follow up in the experiments the formation of compound 21 (the aglycone part) implying a degradation of the starting material.
In order to evaluate the percentage of degradation, a calibration has been done on compound 21 giving the following results:
Data have been plotted (Area % versus concentration) and the linear regression obtained was characterized by the equation y=53629x and a R^2=0.994. […]

Series [2] has as its system β-glucosidase from Almonds. The note with it: as referred in several publications; cited from earlier work.

In the case of `COc1ccc(Cc2ccccc2O[C@@H]2O[C@H](CO)[C@@H](O)[C@H](O)[C@H]2O)cc1` [Sergliflozin-A], in series [1] (4 h at 37° C., phosphate buffer pH 7, 10 U β-glucosidase), the “degradation in the presence of β-glucosidase (in words)” value is “degradation occurs”. For the same molecule, in series [1] (4 h of incubation at 37° C. with β-glucosidase, pH 7, from HPLC area of aglycone 21), the degradation was determined as 80%. For the same molecule, the “cleavage by β-glucosidase” value in series [2] is recorded as “undergo cleavage”.
